Activity calls are given as the source filed them. The rule behind the calls is not given here.
Legend:
RAW264.7 [1] = experiment: Antiinflammatory activity in mouse RAW264.7 cells assessed as inhibition of LPS-induced NO production at 20 uM preincubated with compound for 1 hrs followed by LPS-stimulation and measured after 24 hrs by griess reagent based assay relative to control; type: functional
RAW264.7 [2] = experiment: Cytotoxicity against mouse RAW264.7 cells assessed as reduction in cell viability at 40 uM incubated for 24 hrs by MTT assay; type: toxicity, cell-based; conditions: raw264.7, 24 h
[3] = target: T1, MAP kinase p38 (Mus musculus) (UniProt P47811+O08911+Q9WUI1+Q9Z1B7); experiment: Inhibition of LPS-induced p38 MAPK signaling activation in mouse RAW264.7 cells assessed as inhibition of p38 alpha phosphorylation preincubated with compound for 1 hrs followed by LPS stimulation and measured after 24 hrs by Western blot analysis; type: cell-based; conditions: dose 1-5 µM
RAW264.7 [4] = experiment: Antiinflammatory activity in mouse RAW264.7 cells assessed as suppression of LPS-induced COX-2 expression preincubated with compound for 1 hrs followed by LPS-stimulation and measured after 24 hrs by Western blot analysis; type: functional, cell-based; conditions: dose 1-5 µM
Rattus norvegicus [5] = experiment: Antiarthritic activity against adjuvant arthritis-induced Sprague-Dawley rat model assessed as improvement of arthritic index at 10 to 30 mg/kg, IG pre-administered with FCA for 10 days followed by compound administration once daily for 14 days and measured every 4 days; type: functional, organism-based; conditions: dose 10-30 mg/kg, time 14.0 day
Rattus norvegicus [6] = experiment: Antiarthritic activity against adjuvant arthritis-induced Sprague-Dawley rat model assessed as decrease in IL-1beta level in serum pre-administered with FCA for 10 days followed by intragastric administration of compound once daily for 14 days by ELISA analysis; type: functional, organism-based; conditions: dose 10-30 mg/kg, route ig, time 14.0 day
RAW264.7 [7] = experiment: Antiinflammatory activity in mouse RAW264.7 cells assessed as suppression of LPS-induced iNOS expression preincubated with compound for 1 hrs followed by LPS-stimulation and measured after 24 hrs by Western blot analysis; type: functional, cell-based; conditions: dose 1-5 µM
Rattus norvegicus [8] = experiment: Antiarthritic activity against adjuvant arthritis-induced Sprague-Dawley rat model assessed as alleviation of synovial cell proliferation at 10 to 30 mg/kg, IG pre-administered with FCA for 10 days followed by compound administration once daily for 14 days by H&E staining microscopic analysis; type: functional, organism-based; conditions: dose 10-30 mg/kg, time 14.0 day
RAW264.7 [9] = experiment: Antiinflammatory activity in mouse RAW264.7 cells assessed as inhibition of LPS-induced NO production preincubated with compound for 1 hrs followed by LPS-stimulation and measured after 24 hrs by griess reagent based assay; type: functional, cell-based
Rattus norvegicus [10] = experiment: Antiarthritic activity against adjuvant arthritis-induced Sprague-Dawley rat model assessed as decrease in paw swelling pre-administered with FCA for 10 days followed by intragastric administration of compound once daily for 14 days and measured every 4 days; type: functional, organism-based; conditions: dose 10-30 mg/kg, route ig, time 14.0 day
RAW264.7 [11] = experiment: Antiinflammatory activity in mouse RAW264.7 cells assessed as inhibition of LPS-induced TNF-alpha production preincubated with compound for 1 hrs followed by LPS-stimulation and measured after 24 hrs by ELISA analysis; type: functional, cell-based
[12] = target: T1, MAP kinase p38 (Mus musculus); experiment: Inhibition of LPS-induced p38 MAPK signaling activation in mouse RAW264.7 cells assessed as reduction of MK2 phosphorylation preincubated with compound for 1 hrs followed by LPS stimulation and measured after 24 hrs by Western blot analysis; type: cell-based; conditions: dose 1-5 µM
Rattus norvegicus [13] = experiment: Antiarthritic activity against adjuvant arthritis-induced Sprague-Dawley rat model assessed as decrease in TNF-alpha level in serum pre-administered with FCA for 10 days followed by intragastric administration of compound once daily for 14 days by ELISA analysis; type: functional, organism-based; conditions: dose 10-30 mg/kg, route ig, time 14.0 day
[14] = target: Mitogen-activated protein kinase 14 (Mus musculus) (UniProt P47811); experiment: Thermal stabilization of P38alpha in LPS-induced mouse RAW264.7 cells at 30 uM preincubated with compound for 1 hrs followed by LPS stimulation and measured after 24 hrs at 50 to 55 degreeC by cellular thermal shift assay; type: cell-based
Chain of Mitogen-activated protein kinase 14 (Mus musculus) (P47811 whole entry): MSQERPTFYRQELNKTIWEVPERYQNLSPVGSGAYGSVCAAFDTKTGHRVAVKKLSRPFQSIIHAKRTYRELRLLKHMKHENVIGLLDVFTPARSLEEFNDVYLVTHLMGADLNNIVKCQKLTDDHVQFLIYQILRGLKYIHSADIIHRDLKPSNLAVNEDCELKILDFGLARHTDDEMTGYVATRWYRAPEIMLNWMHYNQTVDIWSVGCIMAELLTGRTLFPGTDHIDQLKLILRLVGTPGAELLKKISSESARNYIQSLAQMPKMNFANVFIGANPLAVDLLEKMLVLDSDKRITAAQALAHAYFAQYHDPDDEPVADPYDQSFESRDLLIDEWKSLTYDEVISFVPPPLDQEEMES

Rattus norvegicus [15] = experiment: Antiarthritic activity against adjuvant arthritis-induced Sprague-Dawley rat model assessed as reduction in body weight loss at 10 to 30 mg/kg, IG pre-administered with FCA for 10 days followed by compound administration once daily for 14 days and measured every 4 days; type: functional, organism-based; conditions: dose 10-30 mg/kg, time 14.0 day
RAW264.7 [16] = experiment: Antiinflammatory activity in mouse RAW264.7 cells assessed as inhibition of LPS-induced IL-1beta production preincubated with compound for 1 hrs followed by LPS-stimulation and measured after 24 hrs by ELISA analysis; type: functional, cell-based
Rattus norvegicus [17] = experiment: Antiarthritic activity against adjuvant arthritis-induced Sprague-Dawley rat model assessed as alleviation of inflammatory cell infiltration at 10 to 30 mg/kg, IG pre-administered with FCA for 10 days followed by compound administration once daily for 14 days by H&E staining microscopic analysis; type: functional, organism-based; conditions: dose 10-30 mg/kg, time 14.0 day

| Compound | inhibition at 20 µM (RAW264.7 [1]) | Activity (RAW264.7 [2]) | also measured |
| --- | --- | --- | --- |
| O=C1c2ccccc2-n2c1nc1ccc(NS(=O)(=O)c3ccc(OC(F)(F)F)cc3)cc1c2=O | 63.6% | Non-Toxic |  |
| Nc1ccc2nc3n(c(=O)c2c1)-c1ccccc1C3=O | 38.1% |  |  |
| O=C1c2cc(NS(=O)(=O)c3ccccc3OC(F)(F)F)ccc2-n2c1nc1ccccc1c2=O | 46.2% | Non-Toxic |  |
| O=C1c2cc(NS(=O)(=O)c3ccc(OC(F)(F)F)cc3)ccc2-n2c1nc1ccccc1c2=O | 42.9% | Non-Toxic |  |
| O=C1c2cc(NS(=O)(=O)c3ccc(Br)cc3)ccc2-n2c1nc1ccccc1c2=O | 18.8% | Non-Toxic |  |
| CC(C)c1cc(C(C)C)c(S(=O)(=O)Nc2ccc3c(c2)C(=O)c2nc4ccccc4c(=O)n2-3)c(C(C)C)c1 | 31.6% | Non-Toxic |  |
| CC(C)(C)c1ccc(S(=O)(=O)Nc2ccc3c(c2)C(=O)c2nc4ccccc4c(=O)n2-3)cc1 | 20.6% | Non-Toxic |  |
| COc1ccc(S(=O)(=O)Nc2ccc3nc4n(c(=O)c3c2)-c2ccccc2C4=O)cc1 | 94% | Non-Toxic | inhibition [3]: Dose-Dependent Effect; Activity (RAW264.7 [4]): Dose-Dependent Effect; Activity (Rattus norvegicus [5]): Active; Activity (Rattus norvegicus [6]): Dose-Dependent Effect; Activity (RAW264.7 [7]): Dose-Dependent Effect; Activity (Rattus norvegicus [8]): Active; IC50 (RAW264.7 [9]): 1.25 µM; Activity (Rattus norvegicus [10]): Dose-Dependent Effect; Activity (RAW264.7 [11]): Dose-Dependent Effect; IC50 (RAW264.7 [11]): 11.5 µM; inhibition [12]: Dose-Dependent Effect; Activity (Rattus norvegicus [13]): Dose-Dependent Effect; Activity [14]: Active; Activity (Rattus norvegicus [15]): Active; Activity (RAW264.7 [16]): Dose-Dependent Effect; IC50 (RAW264.7 [16]): 8.48 µM; Activity (Rattus norvegicus [17]): Active |
| O=C1c2ccccc2-n2c1nc1ccc(NS(=O)(=O)c3ccccc3)cc1c2=O | 14.5% | Non-Toxic |  |
| CC(C)c1cc(C(C)C)c(S(=O)(=O)Nc2ccc3nc4n(c(=O)c3c2)-c2ccccc2C4=O)c(C(C)C)c1 | 81.2% | Non-Toxic | IC50 (RAW264.7 [9]): 4.21 µM |
| COc1ccc(S(=O)(=O)Nc2ccc3c(c2)C(=O)c2nc4ccccc4c(=O)n2-3)cc1OC | 57.2% | Non-Toxic |  |
| CC(=O)Nc1ccc(S(=O)(=O)Nc2ccc3c(c2)C(=O)c2nc4ccccc4c(=O)n2-3)cc1 | 17.3% | Non-Toxic |  |
| COc1ccc(S(=O)(=O)Nc2ccc3nc4n(c(=O)c3c2)-c2ccccc2C4=O)c(OC)c1 | 78% | Non-Toxic |  |
| O=C1c2ccccc2-n2c1nc1ccc(NS(=O)(=O)c3ccccc3OC(F)(F)F)cc1c2=O | 82.1% | Non-Toxic | IC50 (RAW264.7 [9]): 3.88 µM |
| COc1ccc2c(c1)c(CC(=O)O)c(C)n2C(=O)c1ccc(Cl)cc1 [INDOMETHACIN] | 32.1% | Non-Toxic |  |
| CC(C)(C)c1ccc(S(=O)(=O)Nc2ccc3nc4n(c(=O)c3c2)-c2ccccc2C4=O)cc1 | 58.2% | Non-Toxic |  |
| O=C1c2ccccc2-n2c1nc1ccc(NS(=O)(=O)c3c(Cl)cccc3Cl)cc1c2=O | 64.4% | Non-Toxic |  |
| COc1ccc(S(=O)(=O)Nc2ccc3c(c2)C(=O)c2nc4ccccc4c(=O)n2-3)c(OC)c1 | 55.1% | Non-Toxic |  |
